Laboratory results taken from patent publication US9504676B2, “Molecules inhibiting a metabolic pathway involving the Syk protein tyrosine kinase and method for identifying said molecules” (CENTRE NATIONAL DE LA RECHERCHE SCIENTIFIQUE, priority 2008, dated 2016).

Key:
[1] = system: Syk mutants (Arg 68, Glu 121, Glu 155); test: Binding of G4G11 with Syk mutants in the ADA method; parameters: species or system murine; settings: 5 μM of C-13
Description: On the basis of this information and the known 3D structure of the peptide complex formed by the SH2 domains of Syk and ITAM motifs^17, the inventors used computing approaches to locate a putative binding site for C-13. A candidate cavity comprising the residues Ser 9, Gln 43, Phe 51, Ile 66, Glu 67, Arg 68, Glu 69, Leu 70, Asn 71, Gly 72, Thr 73, Tyr 74, Ala 75, Glu 121 and Glu 155 of human Syk protein (see FIG. 8A, SEQ ID No. 1) and situated in the vicinity of the G4G11 epitope was identified (FIG. 1C). A structural analysis specified that the residues Ser 9, Gln 43, Phe 51, Arg 68, Glu 121 and Glu 155 could be involved in the binding of the ligand, and could be mutated without impairing the 3D structure of the protein. To validate the cavity in more detail, these six amino acids were mutated individually and the Syk mutants were subjected to the ADA test.
• 1) Chemical products and antibodies. […] The binding of G4G11 with Syk was assessed by adding the 9E10 monoclonal antibody conjugated with HRP detecting the amino acid sequence EQKLISEEDLN of human c-myc protein located at the C-terminal end of the scFv fragment. To generate Syk mutants, targeted mutagenesis was used on GST:Syk 6-242 protein and the binding of G4G11 with the mutants was assessed in the presence of 5 μM of C-13. • 3) Cells, culture conditions and functional tests. […]

Syk = biological target: T1, Syk (Rattus norvegicus, UniProt Q64725); test: Phosphorylation and FcεRI-induced kinase activity of Syk in RBL-2H3 cells; assay type: cell-based
T1 construct: endogenous in cells; host or cells: RBL-2H3

LAT = test: Phosphorylation of LAT (phospho-specific antibodies); assay type: cell-based, rat; settings: dose-dependent, RBL-2H3 cells

T1 sequence (Q64725 whole entry): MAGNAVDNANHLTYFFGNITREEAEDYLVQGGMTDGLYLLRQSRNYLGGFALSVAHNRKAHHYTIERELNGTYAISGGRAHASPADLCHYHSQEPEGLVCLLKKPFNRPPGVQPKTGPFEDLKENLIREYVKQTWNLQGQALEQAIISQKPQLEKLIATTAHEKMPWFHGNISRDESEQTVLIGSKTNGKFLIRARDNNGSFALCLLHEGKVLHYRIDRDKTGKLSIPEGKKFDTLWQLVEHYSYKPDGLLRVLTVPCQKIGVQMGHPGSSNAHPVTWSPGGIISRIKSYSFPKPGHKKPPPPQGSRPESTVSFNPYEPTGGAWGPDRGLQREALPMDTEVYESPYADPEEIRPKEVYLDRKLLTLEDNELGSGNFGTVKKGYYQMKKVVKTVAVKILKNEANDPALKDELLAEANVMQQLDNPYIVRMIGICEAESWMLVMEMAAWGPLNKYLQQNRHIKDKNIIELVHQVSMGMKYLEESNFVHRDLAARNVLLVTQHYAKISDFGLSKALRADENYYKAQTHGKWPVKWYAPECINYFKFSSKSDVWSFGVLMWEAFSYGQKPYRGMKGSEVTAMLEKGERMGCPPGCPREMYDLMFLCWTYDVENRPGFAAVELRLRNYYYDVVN

In the case of `COC(=O)c1ccccc1-c1ccc(/C=C2/SC(=S)N(Cc3ccccc3)C2=O)o1` [Molecule C-13, methyl 2-{5-[(3-benzyl-4-oxo-2-thioxo-1,3-thiazolidin-5-ylidene)methyl]-2-furyl}benzoate], the “effect of mutation of Arg 68, Glu 121 and Glu 155 of Syk on inhibition of G4G11 binding” value [1] is reported as “cancelled the inhibition”, the “phosphorylation and FcεRI-induced kinase activity of Syk” value (Syk) is reported as “did not affect” and the “phosphorylation of LAT” value (LAT) is reported as “increases”.
